How the values were obtained:
[1] = biological target: T1, Somatostatin receptor type 2 (Homo sapiens, UniProt P30874); experiment: Displacement of [125I]-Tyr-SRIF from recombinant human SST2A receptor expressed in CHOK1 cell membranes after 90 mins by gamma counting method
[2] = biological target: T2, Somatostatin receptor type 4 (Homo sapiens, UniProt P31391); experiment: Displacement of [125I]-Tyr-SRIF from recombinant human SST4 receptor expressed in CHOK1 cell membranes after 90 mins by gamma counting method
T2 sequence (P31391 whole entry): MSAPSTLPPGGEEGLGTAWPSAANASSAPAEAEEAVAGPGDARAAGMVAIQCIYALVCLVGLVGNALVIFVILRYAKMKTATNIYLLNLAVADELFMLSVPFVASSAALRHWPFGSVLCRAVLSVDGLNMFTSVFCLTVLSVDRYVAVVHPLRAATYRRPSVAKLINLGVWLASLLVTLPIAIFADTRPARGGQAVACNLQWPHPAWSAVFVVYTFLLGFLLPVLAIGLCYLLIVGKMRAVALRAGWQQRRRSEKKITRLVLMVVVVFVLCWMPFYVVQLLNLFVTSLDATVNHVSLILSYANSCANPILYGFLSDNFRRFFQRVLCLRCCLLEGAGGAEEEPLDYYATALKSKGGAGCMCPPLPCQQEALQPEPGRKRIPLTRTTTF

[3] = biological target: T1, Somatostatin receptor type 2; experiment: Displacement of [125I]-LTT-SRIF-28 from recombinant human SST2 receptor expressed in CHO cell membranes after 60 mins by scintillation counting method
Homo sapiens [4] = organism: Homo sapiens; experiment: Selectivity ratio of Ki for displacement of [125I]-Tyr-SRIF from SST3 receptor (unknown origin) to Ki for displacement of [125I]-Tyr-SRIF from recombinant human SST4 receptor expressed in CHOK1 cell membranes
Homo sapiens [5] = organism: Homo sapiens; experiment: Selectivity ratio of Ki for displacement of [125I]-Tyr-SRIF from recombinant human SST2A receptor expressed in CHOK1 cell membranes to Ki for displacement of [125I]-Tyr-SRIF from recombinant human SST4 receptor expressed in CHOK1 cell membranes
[6] = biological target: Somatostatin receptor type 5 (Homo sapiens, UniProt P35346); experiment: Displacement of [125I]-Tyr-SRIF from SST5 receptor (unknown origin) after 90 mins by gamma counting method
Somatostatin receptor type 5, sequence (P35346 whole entry): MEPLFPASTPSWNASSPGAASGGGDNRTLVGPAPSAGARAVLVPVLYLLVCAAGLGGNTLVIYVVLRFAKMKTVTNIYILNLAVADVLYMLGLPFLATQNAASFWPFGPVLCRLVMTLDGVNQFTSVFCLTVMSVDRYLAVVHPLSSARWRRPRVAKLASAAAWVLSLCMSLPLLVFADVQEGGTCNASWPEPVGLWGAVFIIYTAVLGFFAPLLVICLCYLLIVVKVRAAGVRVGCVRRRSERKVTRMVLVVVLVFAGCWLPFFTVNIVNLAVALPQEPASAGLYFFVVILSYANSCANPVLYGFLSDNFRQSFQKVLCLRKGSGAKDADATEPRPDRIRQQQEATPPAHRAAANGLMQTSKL

[7] = biological target: Somatostatin receptor type 3 (Homo sapiens, UniProt P32745); experiment: Displacement of [125I]-Tyr-SRIF from SST3 receptor (unknown origin) after 90 mins by gamma counting method
Somatostatin receptor type 3, sequence (P32745 whole entry): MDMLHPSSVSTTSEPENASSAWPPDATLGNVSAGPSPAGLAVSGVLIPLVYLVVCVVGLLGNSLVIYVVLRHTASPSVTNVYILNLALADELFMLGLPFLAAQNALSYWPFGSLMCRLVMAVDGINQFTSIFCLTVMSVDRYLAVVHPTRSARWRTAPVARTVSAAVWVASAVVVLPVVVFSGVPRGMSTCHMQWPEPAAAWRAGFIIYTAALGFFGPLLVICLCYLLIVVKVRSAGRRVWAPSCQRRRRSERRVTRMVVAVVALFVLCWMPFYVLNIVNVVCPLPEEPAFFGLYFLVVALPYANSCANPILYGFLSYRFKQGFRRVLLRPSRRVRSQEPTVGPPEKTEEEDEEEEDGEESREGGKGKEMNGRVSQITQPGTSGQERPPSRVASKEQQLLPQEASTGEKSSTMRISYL

[8] = biological target: Somatostatin receptor type 1 (Homo sapiens, UniProt P30872); experiment: Displacement of [125I]-Tyr-SRIF from SST1 receptor (unknown origin) after 90 mins by gamma counting method
Somatostatin receptor type 1, sequence (P30872 whole entry): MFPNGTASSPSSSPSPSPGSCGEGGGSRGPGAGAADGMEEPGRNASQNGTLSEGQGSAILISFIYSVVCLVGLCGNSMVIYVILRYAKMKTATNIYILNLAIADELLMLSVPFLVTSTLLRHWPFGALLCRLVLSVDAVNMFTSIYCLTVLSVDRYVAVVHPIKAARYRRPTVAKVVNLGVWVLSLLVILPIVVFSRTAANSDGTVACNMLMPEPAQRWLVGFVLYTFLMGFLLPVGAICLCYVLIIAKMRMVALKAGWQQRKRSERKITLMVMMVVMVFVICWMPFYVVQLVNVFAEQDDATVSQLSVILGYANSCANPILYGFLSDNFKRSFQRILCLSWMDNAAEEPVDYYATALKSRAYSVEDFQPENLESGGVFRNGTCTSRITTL

Homo sapiens [9] = organism: Homo sapiens; experiment: Selectivity ratio of Ki for displacement of [125I]-Tyr-SRIF from SST1 receptor (unknown origin) to Ki for displacement of [125I]-Tyr-SRIF from recombinant human SST4 receptor expressed in CHOK1 cell membranes
[10] = biological target: T2, Somatostatin receptor type 4; experiment: Agonist activity at recombinant human SST4 receptor expressed in CHOK1 cell membranes assessed as inhibition of forskolin-stimulated cAMP accumulation measured after 2.5 to 20 hrs by TR-FRET assay; format: functional, cell-based
Homo sapiens [11] = organism: Homo sapiens; experiment: Selectivity ratio of Ki for displacement of [125I]-Tyr-SRIF from SST5 receptor (unknown origin) to Ki for displacement of [125I]-Tyr-SRIF from recombinant human SST4 receptor expressed in CHOK1 cell membranes
[12] = biological target: T1, Somatostatin receptor type 2; experiment: Displacement of 3-[125I]iodotyrosyl25-somatostatin-28 from recombinant human SST2 receptor expressed in CHOK1 cell membranes after 45 mins by scintillation counting method
[13] = biological target: T2, Somatostatin receptor type 4; experiment: Displacement of 3-[125I]iodotyrosyl25-somatostatin-28 from recombinant human SST4 receptor expressed in CHOK1 cell membranes after 45 mins by scintillation counting method

T1 sequence (P30874 whole entry): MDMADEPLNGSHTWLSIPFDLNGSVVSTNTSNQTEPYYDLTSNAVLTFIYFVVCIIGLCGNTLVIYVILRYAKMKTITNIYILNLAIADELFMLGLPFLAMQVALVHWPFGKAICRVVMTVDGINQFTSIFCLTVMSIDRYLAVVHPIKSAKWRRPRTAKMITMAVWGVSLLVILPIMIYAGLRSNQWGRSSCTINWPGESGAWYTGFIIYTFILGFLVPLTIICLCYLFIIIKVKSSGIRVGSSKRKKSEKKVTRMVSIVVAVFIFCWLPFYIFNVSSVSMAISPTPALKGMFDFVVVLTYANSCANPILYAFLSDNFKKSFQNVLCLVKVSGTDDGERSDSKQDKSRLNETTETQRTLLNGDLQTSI

| Structure (SMILES) | Ki [1] [µM] | Ki [2] [µM] | also measured |
| --- | --- | --- | --- |
| Clc1ccc(Cn2c(CCc3c[nH]c4ccccc34)nnc2C2CCNCC2)cc1Cl | > 10 | > 10 |  |
| Clc1ccc(Cn2c(Cc3c[nH]c4ccccc34)nnc2C2CCNCC2)cc1Cl |  | > 10 |  |
| Clc1ccc(Cc2nnc(C3CCNCC3)n2CCc2c[nH]c3ccccc23)cc1Cl |  | > 10 |  |
| c1ccc(Cn2c(Cc3c[nH]c4ccccc34)nnc2C2CCNCC2)cc1 | > 10 | > 10 |  |
| Cc1ccc(S(=O)(=O)N[C@@H](CCN)C(=O)N[C@@H](Cc2ccccc2)C(N)=O)c2ccccc12 |  |  | Ki [3]: > 5 µM |
| NCCCn1c(CCc2c[nH]c3ccccc23)nnc1Cc1ccc(Cl)c(Cl)c1 | > 10 | 2.38 |  |
| NCCCc1nnc(Cc2ccc(Cl)c(Cl)c2)n1CCc1c[nH]c2ccccc12 |  | > 10 |  |
| NCCCc1nnc(CCc2c[nH]c3ccccc23)n1Cc1ccc(Cl)c(Cl)c1 | > 10 | > 10 |  |
| Clc1ccc(Cn2c(CCc3c[nH]cn3)nnc2Cc2c[nH]c3ccccc23)cc1Cl | > 10 | > 10 |  |
| Clc1ccc(Cc2nnc(CCc3c[nH]c4ccccc34)n2CCCc2c[nH]cn2)cc1Cl | > 10 | 0.019 | Ratio Ki (Homo sapiens [4]): 350; Ratio Ki (Homo sapiens [5]): > 500; Ki [6]: > 10 µM; Ki [7]: 6.63 µM; Ki [8]: 4.75 µM; Ratio Ki (Homo sapiens [9]): 250; EC50 [10]: 0.0068 µM; Ratio Ki (Homo sapiens [11]): > 500 |
| c1ccc(Cn2c(CCc3c[nH]cn3)nnc2CCc2c[nH]c3ccccc23)cc1 |  | 4.47 |  |
| Clc1ccc(Cn2c(CCc3c[nH]cn3)nnc2CCc2c[nH]c3ccccc23)cc1Cl | > 10 | 1.43 |  |
| NCCCc1nnc(Cc2c[nH]c3ccccc23)n1Cc1ccc(Cl)c(Cl)c1 | > 10 | > 10 |  |
| c1ccc(CCn2c(CCc3c[nH]cn3)nnc2CCc2c[nH]c3ccccc23)cc1 | > 10 | 2.03 |  |
| NCCCc1nnc(Cc2c[nH]c3ccccc23)n1Cc1ccccc1 |  | > 10 |  |
| COC(=O)[C@H](CCCN=C(N)N)NC(=O)CCCc1c(-c2ccccc2)[nH]c2c(F)cc(F)cc12 |  |  | Ki [12]: 4.72 µM; Ki [13]: 0.0007 µM |
| c1ccc(Cn2c(CCc3c[nH]c4ccccc34)nnc2C2CCNCC2)cc1 | > 10 | > 10 |  |
| c1ccc(Cn2c(CCc3c[nH]cn3)nnc2Cc2c[nH]c3ccccc23)cc1 |  | > 10 |  |
| Clc1ccc(Cc2nnc(CCc3c[nH]cn3)n2CCc2c[nH]c3ccccc23)cc1Cl | > 10 | 4.8 |  |
| NCCCc1nnc(CCc2c[nH]c3ccccc23)n1Cc1ccccc1 | > 10 | < 10 |  |
